Results reported in US20130039951A1, “Process Of Preparing A Stabilized And Solubilized Formulation Of Sirolimus Derivatives” (DONG-A PHARM. CO., LTD., priority 2011, published 2013).

How the values were obtained:
[1] = Stability: storage in glass vial at 80° C. for 60 hours, drug content by HPLC; assay type: physicochemical
Protocol: For Examples 1 to 6 and Comparative Examples 2 and 3, their stability was evaluated and the results were compared. Each of the samples was placed in a glass vial and stored at 80° C. for 60 hours, and then the content of the drug was quantified by using a high performance liquid chromatography.

[2] = Elution test of tablets in distilled water, paddle method, HPLC; assay type: physicochemical; settings: 900 mL distilled water, 37.5° C., 10 mg everolimus, after 1 hour
Protocol: The granules of the examples were mixed with pharmaceutical excipients as set forth in Table 1 and then tableted to give a tablet. A direct compressing method was used to prepare a tablet comprising 10 mg of a sirolimus derivative with a hardness of 13 to 15 Kp. However, the formulation prepared from Comparative Example 1 had difficulties in being mixed with the pharmaceutical excipients of Table 1 and also met with an obstacle in a tableting process so that it was subjected to an additional milling process and controlled to have a granularity of 200 to 300 μm before being mixed with the excipients and tableted.
The tablets as obtained were evaluated for their elution property. 900 mL of an elution liquid (distilled water) was put into an elution tester and the granules as obtained in Examples 1 to 6 were taken in an amount corresponding to a dosage of 10 mg of everolimus and subjected to an elution test at 37.5° C. with 50 cycles per a minute by using a paddle method for 2 hours. For each […] taken in accordance with a predetermined schedule, the concentration of everolimus in the elution liquid was quantified by using a high performance liquid chromatography. […]

content after being left for 60 hours ([1]; 80° C., 60 hours): 23.5%
Content, initial ([1]; before storage): 100.4 wt %
Content, After 60 hours ([1]; stored at 80° C. for 60 hours in glass vial): 23.5 wt %
elution rate of everolimus [2]: about 37%
Compound: CO[C@H]1C[C@@H]2CC[C@@H](C)[C@@](O)(O2)C(=O)C(=O)N2CCCC[C@H]2C(=O)O[C@H]([C@H](C)C[C@@H]2CC[C@@H](OCCO)[C@H](OC)C2)CC(=O)[C@H](C)/C=C(\C)[C@@H](O)[C@@H](OC)C(=O)[C@H](C)C[C@H](C)/C=C/C=C/C=C/1C [Comparative Example 2, 40-O hydroxyethyl rapamycin]
